Source: patent US6630174B2, “Methods and compositions for retarding and eradicating infestation in trees and tree derived products” (Nisus Corporation, priority 1990, dated 2003)

How the values were obtained:
[1] = tested on: broad spectrum of infestation; assay: Boron concentration effective against infestation; format: in vivo; conditions: concentration in the wood
[2] = tested on: dry wood termites; conditions: in vivo; cited from earlier work

Row | Compound | concentration generally effective for preventing or eradicating a broad spectrum of infestation [1] [ppm] | boron concentration efficacious against dry wood termites [2] [parts per million]
1 | [B] [boron] | 500 | 100
2 | O.O.O.O.O=BOB1OB(OB=O)OB2OB([O-])OB([O-])OB(O1)O2.[Na+].[Na+] [DOT, disodium octaborate tetrahydrate] | 2400 | –
